In ChEMBL document CHEMBL4602617, “Discovery and optimization of heteroaryl piperazines as potent and selective PI3Kδ inhibitors” (Bioorg Med Chem Lett, 2020):

Assays:
Homo sapiens = species: Homo sapiens; test: Selectivity index, ratio IC50 for inhibition of recombinant human N-terminal His6-tagged full-length p120gamma expressed in Sf21 insect cells to ratio IC50 for inhibition of recombinant human full-length N-terminal GST-tagged p110delta/untagged full-length p85alpha expressed in baculovirus infected Sf21 cells
[1] = Clearance in rat liver microsomes; assay type: ADME, Microsome; conditions: read-out: CLH
[2] = Unbound clearance in rat at 0.5 mg/kg, iv or 1 mg/kg, po; assay type: ADME, organism-based; conditions: in vivo
[3] = Half life in dog at 0.5 mg/kg, iv 1 mg/kg, po; assay type: ADME, organism-based, Canis lupus familiaris; conditions: in vivo
[4] = biological target: Calcium/calmodulin-dependent protein kinase type IV (Homo sapiens, UniProt Q16566); test: Inhibition of recombinant full length human full length GST-tagged CAMK4 expressed in Escherichia coli expression system using serine/threonine-13 peptide as substrate incubated for 60 mins in presence of ATP by Z'-LYTE assay
[5] = biological target: Serine/threonine-protein kinase B-raf (Homo sapiens, UniProt P15056); test: Inhibition of recombinant full length human GST-tagged BRAF expressed in baculovirus expression system using tyrosine-1 peptide as substrate incubated for 60 mins in presence of ATP by Z'-LYTE assay
[6] = biological target: Tyrosine-protein kinase HCK (Homo sapiens, UniProt P08631); test: Inhibition of recombinant full length N-terminal GST-tagged human HCK expressed in baculovirus expression system using Tyr 02 as substrate after 1 hr in presence of ATP by Z'-LYTE assay
Misshapen-like kinase 1 = Misshapen-like kinase 1 (Homo sapiens, UniProt Q8N4C8); test: Inhibition of recombinant human MINK1 catalytic domain expressed in baculovirus expression system using Ser/Thr 07 peptide as substrate after 1 hr in presence of ATP by Z'LYTE assay
[7] = biological target: Substance-P receptor (Homo sapiens) (UniProt P25103); test: Displacement of [3H]substance P from recombinant full length human NK1R expressed in CHO cells at 10 uM after 90 mins by radiometric scintillation analysis relative to control; assay type: cell-based
[8] = biological target: Retinoic acid receptor RXR-alpha (Homo sapiens) (UniProt P19793); test: Displacement of [3H]-9-cis-Retinoic acid from human recombinant RXRalpha receptor LBD domain expressed in Escherichia coli at 10 uM measured after 16 hrs by radiometric scintillation analysis relative to control
Rattus norvegicus = species: Rattus norvegicus; test: Displacement of [3H]TBOB from GABAA chloride channel receptor in Wistar rat whole brain membranes at 10 uM measured after 120 mins by radiometric scintillation analysis relative to control; assay type: cell membranes; conditions: Membrane
[9] = biological target: Corticotropin-releasing factor receptor 1 (Homo sapiens) (UniProt P34998); test: Displacement of [125I](Tyr0)-CRF from recombinant full length human recombinant CRF1 expressed in CHO-K1 cells at 10 uM measured after 60 mins by radiometric scintillation analysis relative to control; assay type: cell-based
[10] = biological target: Alpha-2C adrenergic receptor (Homo sapiens) (UniProt P18825); test: Displacement of [3H]rauwolscine from full-length recombinant human alpha2C receptor expressed in CHOK1 cells at 10 uM measured after 60 mins by scintillation counting method relative to control; assay type: cell-based; conditions: CHO-K1
[11] = biological target: Alpha-2A adrenergic receptor (Homo sapiens) (UniProt P08913); test: Displacement of [3H]rauwolscine from full-length recombinant human alpha2A receptor expressed in CHOK1 cells at 10 uM measured after 60 mins by scintillation counting method relative to control; assay type: cell-based; conditions: CHO-K1
[12] = biological target: Alpha-1D adrenergic receptor (Homo sapiens) (UniProt P25100); test: Displacement of [3H]prazosin from recombinant full length human alpha1d adrenergic receptor expressed in HEK293 cell membranes at 10 uM measured after 60 mins by scintillation counting method relative to control
Caspase-9 (Homo sapiens) = Caspase-9 (Homo sapiens) (UniProt P55211); test: Inhibition of recombinant human caspase 9 expressed in Escherichia coli at 10 uM using Ac-LEHD-AFC as substrate after 60 mins by spectrophotometric analysis relative to control
MAO-A = MAO-A (Homo sapiens, UniProt P21397); test: Inhibition of recombinant full-length human MAO-A expressed in insect cells at 10 uM using kynuramine as substrate after 60 mins by spectrophotometric analysis relative to control; conditions: probe kynuramine
[13] = biological target: Macrophage colony-stimulating factor 1 receptor (Homo sapiens, UniProt P07333); test: Inhibition of recombinant human His-tagged CSF1R catalytic domain (538 to 910 residues) expressed in baculovirus expression system using tyrosine-1 peptide as substrate incubated for 60 mins in presence of ATP by Z'-LYTE assay
[14] = biological target: Serine/threonine-protein kinase haspin (Homo sapiens, UniProt Q8TF76); test: Inhibition of recombinant N-terminal GST tagged human GSG2 catalytic domain (471 to 798 residues) expressed in baculovirus expression system using Histone H3 (1-20) peptide as substrate after 1 hr in presence of ATP by ADAPTA assay
[15] = biological target: Inhibitor of nuclear factor kappa-B kinase subunit alpha (Homo sapiens, UniProt O15111); test: Inhibition of recombinant full length His-tagged human IKKalpha expressed in baculovirus expression system after 1 hr in presence of ATP by Adapta assay
[16] = biological target: Mitogen-activated protein kinase kinase kinase 9 (Homo sapiens, UniProt P80192); test: Inhibition of recombinant human GST-tagged MAP3K9 catalytic domain expressed in baculovirus expression system using serine/threonine-7 peptide as substrate incubated for 60 mins in presence of ATP by Z'-LYTE assay
[17] = biological target: Mitogen-activated protein kinase kinase kinase kinase 2 (Homo sapiens, UniProt Q12851); test: Inhibition of recombinant full length human HIs-tagged MAP4K2 expressed in baculovirus expression system using serine/threonine-7 peptide as substrate incubated for 60 mins in presence of ATP by Z'-LYTE assay
[18] = biological target: NT-3 growth factor receptor (Homo sapiens, UniProt Q16288); test: Inhibition of recombinant human His-tagged TrkC cytoplasmic domain (510 to 825 residues) expressed in baculovirus using tyr 01 as substrate incubated for 1 hr in presence of ATP by Z'-Lyte assay
[19] = biological target: NUAK family SNF1-like kinase 1 (Homo sapiens, UniProt O60285); test: Inhibition of recombinant full length His-tagged human NUAK1 expressed in baculovirus expression system using CHKtide as substrate after 1 hr in presence of ATP by Adapta assay
[20] = biological target: Phosphatidylinositol 4-kinase alpha (Homo sapiens, UniProt P42356); test: Inhibition of recombinant full length human N-terminal GST-tagged PI4KA expressed in baculovirus expression system using PI lipid as substrate incubated for 60 mins in presence of ATP by Adapta assay
[21] = biological target: Phosphatidylinositol 3-kinase catalytic subunit type 3 (Homo sapiens, UniProt Q8NEB9); test: Inhibition of recombinant full length human GST-tagged PIK3C3 expressed in baculovirus expression system using PI lipid as substrate incubated for 60 mins in presence of ATP by Adapta assay
[22] = biological target: Rho-associated protein kinase 2 (Homo sapiens, UniProt O75116); test: Inhibition of recombinant human GST-tagged ROCK2 catalytic domain expressed in baculovirus expression system using serine/threonine-13 peptide as substrate incubated for 60 mins in presence of ATP by Z'-LYTE assay
[23] = test system: Atrial natriuretic peptide receptor 1 (Cavia porcellus); test: Inhibition of guniea pig ANF at 10 uM relative to control

Chain of NT-3 growth factor receptor (Q16288 whole entry, the tested form may be a part): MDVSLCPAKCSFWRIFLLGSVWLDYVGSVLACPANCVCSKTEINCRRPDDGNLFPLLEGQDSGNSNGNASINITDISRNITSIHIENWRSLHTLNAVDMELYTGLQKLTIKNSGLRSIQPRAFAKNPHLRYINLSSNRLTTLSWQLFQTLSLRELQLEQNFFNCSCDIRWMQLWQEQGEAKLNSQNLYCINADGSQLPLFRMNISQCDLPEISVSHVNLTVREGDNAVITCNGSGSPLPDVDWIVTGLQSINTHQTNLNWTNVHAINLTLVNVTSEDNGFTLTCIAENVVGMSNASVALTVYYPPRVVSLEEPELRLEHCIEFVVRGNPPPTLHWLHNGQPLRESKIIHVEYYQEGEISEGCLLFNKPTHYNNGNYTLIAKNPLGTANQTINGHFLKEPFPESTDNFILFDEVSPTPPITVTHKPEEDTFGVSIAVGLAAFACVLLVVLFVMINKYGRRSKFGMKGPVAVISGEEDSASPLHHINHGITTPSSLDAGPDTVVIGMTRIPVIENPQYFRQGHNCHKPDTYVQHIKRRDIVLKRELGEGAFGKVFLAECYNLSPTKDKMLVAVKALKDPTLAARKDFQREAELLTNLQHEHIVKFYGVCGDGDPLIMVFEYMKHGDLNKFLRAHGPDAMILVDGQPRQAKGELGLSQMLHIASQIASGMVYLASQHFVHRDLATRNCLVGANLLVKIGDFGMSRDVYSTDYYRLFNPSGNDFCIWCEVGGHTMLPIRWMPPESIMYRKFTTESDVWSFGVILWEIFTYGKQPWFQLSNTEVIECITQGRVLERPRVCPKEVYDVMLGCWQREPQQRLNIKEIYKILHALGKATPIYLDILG
Chain of Tyrosine-protein kinase HCK (P08631 whole entry, the tested form may be a part): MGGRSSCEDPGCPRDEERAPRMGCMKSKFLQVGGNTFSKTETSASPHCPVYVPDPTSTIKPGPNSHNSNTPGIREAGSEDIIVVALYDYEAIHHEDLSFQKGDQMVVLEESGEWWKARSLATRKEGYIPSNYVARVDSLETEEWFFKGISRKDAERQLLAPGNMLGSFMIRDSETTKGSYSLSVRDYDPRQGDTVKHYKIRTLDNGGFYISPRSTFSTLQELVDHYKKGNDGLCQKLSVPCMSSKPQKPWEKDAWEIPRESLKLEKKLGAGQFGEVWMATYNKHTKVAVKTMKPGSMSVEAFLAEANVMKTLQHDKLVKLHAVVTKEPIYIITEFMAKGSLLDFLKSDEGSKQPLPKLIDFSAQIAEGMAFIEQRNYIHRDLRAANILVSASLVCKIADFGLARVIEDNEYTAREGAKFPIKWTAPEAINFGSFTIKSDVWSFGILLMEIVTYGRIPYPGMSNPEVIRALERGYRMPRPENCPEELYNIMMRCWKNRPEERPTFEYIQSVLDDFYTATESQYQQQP
Chain of Alpha-1D adrenergic receptor (Homo sapiens) (P25100 whole entry): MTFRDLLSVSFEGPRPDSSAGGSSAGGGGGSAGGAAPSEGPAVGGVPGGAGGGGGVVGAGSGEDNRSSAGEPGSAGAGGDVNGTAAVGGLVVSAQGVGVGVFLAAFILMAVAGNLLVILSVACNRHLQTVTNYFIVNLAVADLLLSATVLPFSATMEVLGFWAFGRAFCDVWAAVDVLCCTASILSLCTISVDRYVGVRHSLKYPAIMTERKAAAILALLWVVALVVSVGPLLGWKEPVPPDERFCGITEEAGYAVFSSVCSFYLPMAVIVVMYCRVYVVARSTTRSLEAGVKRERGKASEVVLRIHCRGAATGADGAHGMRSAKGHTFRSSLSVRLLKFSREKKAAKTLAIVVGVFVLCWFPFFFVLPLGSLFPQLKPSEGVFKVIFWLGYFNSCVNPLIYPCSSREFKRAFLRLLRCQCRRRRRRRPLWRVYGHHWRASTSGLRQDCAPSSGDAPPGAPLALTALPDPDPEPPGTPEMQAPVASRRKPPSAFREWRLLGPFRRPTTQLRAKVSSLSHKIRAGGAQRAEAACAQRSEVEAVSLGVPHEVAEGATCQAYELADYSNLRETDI
Chain of Phosphatidylinositol 4-kinase alpha (P42356 whole entry): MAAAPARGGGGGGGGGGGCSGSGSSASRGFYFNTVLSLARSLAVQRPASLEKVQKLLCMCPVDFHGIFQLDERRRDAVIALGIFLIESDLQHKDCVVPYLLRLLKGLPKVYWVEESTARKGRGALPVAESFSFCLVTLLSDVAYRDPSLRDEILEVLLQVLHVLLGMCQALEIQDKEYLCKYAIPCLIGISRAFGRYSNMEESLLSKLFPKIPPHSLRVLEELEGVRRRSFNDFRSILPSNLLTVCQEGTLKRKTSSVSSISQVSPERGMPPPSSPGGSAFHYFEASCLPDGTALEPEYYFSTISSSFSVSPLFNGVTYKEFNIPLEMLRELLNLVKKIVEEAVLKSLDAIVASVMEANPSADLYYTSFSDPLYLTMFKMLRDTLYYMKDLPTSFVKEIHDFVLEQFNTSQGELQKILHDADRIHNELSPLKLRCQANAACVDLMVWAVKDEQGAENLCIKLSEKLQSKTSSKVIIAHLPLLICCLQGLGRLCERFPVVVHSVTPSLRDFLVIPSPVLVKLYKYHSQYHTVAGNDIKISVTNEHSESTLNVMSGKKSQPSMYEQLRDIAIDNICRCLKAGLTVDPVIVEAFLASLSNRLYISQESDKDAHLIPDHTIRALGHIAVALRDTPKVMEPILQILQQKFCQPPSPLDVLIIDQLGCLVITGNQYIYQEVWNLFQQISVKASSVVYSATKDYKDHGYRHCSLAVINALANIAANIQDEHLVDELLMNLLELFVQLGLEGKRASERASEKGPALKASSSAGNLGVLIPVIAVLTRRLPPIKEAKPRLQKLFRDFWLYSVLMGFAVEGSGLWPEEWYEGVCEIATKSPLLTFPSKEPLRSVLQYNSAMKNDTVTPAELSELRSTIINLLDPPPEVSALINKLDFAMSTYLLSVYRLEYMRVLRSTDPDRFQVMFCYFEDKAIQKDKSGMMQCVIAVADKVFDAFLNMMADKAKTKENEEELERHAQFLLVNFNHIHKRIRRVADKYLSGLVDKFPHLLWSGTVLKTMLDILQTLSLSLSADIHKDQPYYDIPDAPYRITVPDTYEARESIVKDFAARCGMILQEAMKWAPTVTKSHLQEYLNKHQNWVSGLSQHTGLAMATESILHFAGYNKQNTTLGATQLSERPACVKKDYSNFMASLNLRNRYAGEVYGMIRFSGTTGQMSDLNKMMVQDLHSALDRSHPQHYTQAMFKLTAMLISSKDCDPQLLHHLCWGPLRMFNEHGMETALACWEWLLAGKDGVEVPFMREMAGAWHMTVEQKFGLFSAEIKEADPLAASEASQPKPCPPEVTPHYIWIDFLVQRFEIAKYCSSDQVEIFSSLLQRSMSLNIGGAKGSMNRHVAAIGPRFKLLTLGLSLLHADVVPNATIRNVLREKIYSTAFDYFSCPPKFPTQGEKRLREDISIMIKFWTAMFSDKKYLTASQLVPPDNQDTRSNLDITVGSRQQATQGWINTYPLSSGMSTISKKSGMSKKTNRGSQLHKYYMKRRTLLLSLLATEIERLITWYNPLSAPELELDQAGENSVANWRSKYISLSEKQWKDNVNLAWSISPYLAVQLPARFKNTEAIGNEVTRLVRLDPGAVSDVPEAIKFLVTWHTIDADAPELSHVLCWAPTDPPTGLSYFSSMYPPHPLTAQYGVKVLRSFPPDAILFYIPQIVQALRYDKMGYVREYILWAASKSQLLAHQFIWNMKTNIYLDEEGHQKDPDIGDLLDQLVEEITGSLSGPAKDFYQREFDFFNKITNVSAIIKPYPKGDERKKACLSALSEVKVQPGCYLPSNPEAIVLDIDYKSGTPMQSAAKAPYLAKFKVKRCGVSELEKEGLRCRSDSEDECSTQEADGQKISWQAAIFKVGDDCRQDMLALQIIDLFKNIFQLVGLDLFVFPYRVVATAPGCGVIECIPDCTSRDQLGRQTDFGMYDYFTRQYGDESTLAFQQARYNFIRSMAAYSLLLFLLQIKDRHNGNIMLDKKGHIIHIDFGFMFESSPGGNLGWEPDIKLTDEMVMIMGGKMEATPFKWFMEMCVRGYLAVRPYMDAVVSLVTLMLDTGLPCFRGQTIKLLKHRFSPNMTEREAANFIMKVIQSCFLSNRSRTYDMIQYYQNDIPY
Chain of Macrophage colony-stimulating factor 1 receptor (P07333 whole entry, the tested form may be a part): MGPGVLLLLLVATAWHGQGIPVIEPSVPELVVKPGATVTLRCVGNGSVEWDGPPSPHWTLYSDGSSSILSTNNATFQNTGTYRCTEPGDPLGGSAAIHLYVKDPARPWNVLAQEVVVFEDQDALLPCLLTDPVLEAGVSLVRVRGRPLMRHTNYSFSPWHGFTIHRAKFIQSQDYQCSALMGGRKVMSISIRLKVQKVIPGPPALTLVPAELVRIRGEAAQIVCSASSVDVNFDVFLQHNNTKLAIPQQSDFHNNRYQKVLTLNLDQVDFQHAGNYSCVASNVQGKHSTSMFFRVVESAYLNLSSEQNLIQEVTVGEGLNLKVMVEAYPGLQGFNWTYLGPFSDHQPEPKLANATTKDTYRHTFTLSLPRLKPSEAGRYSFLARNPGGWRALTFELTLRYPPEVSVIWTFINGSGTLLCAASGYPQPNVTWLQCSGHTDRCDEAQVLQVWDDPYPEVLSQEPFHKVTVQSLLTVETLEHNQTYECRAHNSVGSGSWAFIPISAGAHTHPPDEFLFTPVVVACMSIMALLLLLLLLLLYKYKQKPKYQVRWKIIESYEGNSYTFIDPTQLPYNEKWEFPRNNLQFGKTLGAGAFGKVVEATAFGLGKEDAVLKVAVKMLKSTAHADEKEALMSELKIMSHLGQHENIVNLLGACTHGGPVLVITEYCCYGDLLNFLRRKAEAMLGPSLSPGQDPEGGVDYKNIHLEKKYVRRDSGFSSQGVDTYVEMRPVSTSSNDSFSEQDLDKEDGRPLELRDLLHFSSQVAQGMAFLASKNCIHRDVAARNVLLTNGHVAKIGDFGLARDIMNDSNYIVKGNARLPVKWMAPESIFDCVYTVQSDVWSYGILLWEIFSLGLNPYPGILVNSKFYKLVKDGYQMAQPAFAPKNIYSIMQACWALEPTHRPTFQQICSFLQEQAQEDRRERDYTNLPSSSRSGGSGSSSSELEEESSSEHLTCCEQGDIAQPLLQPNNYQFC

C[C@@H]1C[C@H]1C(=O)N1CCN(c2cnc(C#N)c(-c3cnn(C)c3)n2)C[C@H]1C gave a Ratio IC50 (Homo sapiens) of 847, a CLint scaled [1] of 47 mL/min/kg and a CL free [2] of 187 mL/min/kg. For the same molecule, the half-life [3] was 2.9 h, the IC50 [4] was over 100 µM and the IC50 [5] was over 100 µM. It also gave an IC50 [6] of 37.6 µM, an IC50 (Misshapen-like kinase 1) of 25.6 µM and an inhibition [7] of -1%. It also gave an inhibition [8] of 8%, an inhibition (Rattus norvegicus) of -8% and an inhibition [9] of 6%. It also gave an inhibition [10] of 5%, an inhibition [11] of 2% and an inhibition [12] of 5%. For the same molecule, the inhibition (Caspase-9 (Homo sapiens)) was 2%, the inhibition at 1 h, 10 µM (MAO-A) was 11% and the IC50 [13] was over 100 µM. For the same molecule, the IC50 [14] was over 100 µM, the IC50 [15] was over 100 µM and the IC50 [16] was over 100 µM. It also gave an IC50 [17] of over 100 µM, an IC50 [18] of over 100 µM and an IC50 [19] of over 100 µM. It also gave an IC50 [20] of over 100 µM, an IC50 [21] of over 100 µM and an IC50 [22] of over 100 µM. The inhibition [23] was 8%.
